Consider three compounds from publication PMC11876601 (Molecular Systems Biology, 2025).

The EC50 is the concentration needed to bring the measured effect to its halfway point.

Where “and” joins values, the source holds several entries; their conditions need not be identical. Equal values may be shown once. A value given as a limit tells only on which side of the number the result lay.

In one assay the target is PRKCD. Also on record: method as in Reinecke et al. (2023). The note with it: 5 cell line mix lysate, Kinobeads ε, ref Reinecke et al. (2023), cited from earlier work.
For the next assay, the system named is PKN3. Also on record: method as in Reinecke et al. (2023). The note with it: PKN3, 5 cell line mix lysate, Kinobeads ε, ref Reinecke et al. (2023), cited from earlier work.
Another assay has as its system p-sites in AsPC-1 cells. In words: Phosphoproteomics 1 µM GEM vs. vehicle (4 h). The assay is classed as cell-based, human. How it is done:
Cell culture medium was replaced 24 h after seeding. […] For time point 0, AsPC-1 cells were treated with a vehicle and lysed immediately. The final DMSO concentration in all experiments was 0.2%.
Briefly, cells were washed twice with PBS and lysed in SDS lysis buffer (2% SDS in 40 mM Tris-HCl, pH 7.6), followed by sonication for 10 min (30 s on/30 s off) using a Bioruptor (Diagenode). For DNA hydrolysis, samples were boiled at 95 °C for 10 min and incubated with 2% trifluoroacetic acid (TFA) for 1 min, before the reaction was quenched using 4% N-methylmorpholine. Lysate was cleared by centrifugation at 11,000 × g for 5 min and protein concentration was determined using the Pierce BCA Protein Assay Kit (Thermo Scientific).
Using 70% ethanol, samples were then precipitated on beads, followed by washing thrice with 80% ethanol and once with 100% acetonitrile. Subsequently, proteins were reduced and alkylated using 10 mM TCEP, 50 mM chloroacetamide, and 2 mM CaCl2 in 100 mM EPPS/NaOH, pH 8.5 for 1 h at 37 °C, followed by tryptic digestion at 37 °C for 16 h. Peptides were acidified with 1% TFA and desalted on Chromabond HLB plates (30 µm particle size, 10 mg capacity, Machery-Nagel), using 0.1% TFA for equilibration and sample loading, and 0.1% TFA in 70% acetonitrile for peptide elution. Recovered peptides were freeze-dried by vacuum-centrifugation and stored at −20 °C.
Depending on the experiment, samples were either labeled with TMT-11plex (decryptM), TMT-10plex (non-decryptM, quadruplicates), or TMTpro reagent (time-series; all Thermo Scientific). Therefore, dried peptides were reconstituted in 15 µl 100 mM EPPS, pH 8.5 and each treatment condition was labeled with one channel of the respective TMT reagent (5 µl of 25 µg/µl reagent, Appendix Tables S4–S6). The reaction was incubated for 1 h at 23 °C and subsequently quenched with 0.4% hydroxylamine. Then, samples were pooled, acidified with 1% formic acid, and freeze-dried by vacuum-centrifugation. Labeled peptide pools were desalted on C18 Sep-Pak cartridges (37–55 µm particle size, 50 mg capacity, Waters), using 0.1% formic acid as equilibration solvent, and 0.1% formic acid in 60% acetonitrile was used as elution solvent. Eluted peptides were freeze-dried and stored at −20 °C until further use.
Basic reversed-phase (bRP) fractionation of peptides was performed on a Vanquish HPLC (Thermo Scientific). In short, dried peptides were reconstituted in 200 µl 25 mM ammonium bicarbonate, pH 8.0 and directly injected onto a Waters BEH130 XBridge C18 column (3.5 µm, 4.6 × 250 mm). […] Using an automated fraction collector, 96 fractions were collected between min 7 and 55 after injection. Fractions were acidified with 1% formic acid and pooled to 48 fractions, before they were freeze-dried and stored at −20 °C.
Immobilized metal ion affinity chromatography (IMAC) enrichment of phosphorylated peptides was performed on the Bravo automated liquid handling platform using AssayMAP Fe(III)-NTA cartridges (Agilent). In brief, the 48 dried peptide fractions were reconstituted in 0.1% TFA in 80% acetonitrile and further pooled to 12 fractions (200 µl final volume per well). The phosphopeptide enrichment protocol embedded in the Agilent AssayMAP Bravo Protein Sample Prep Workbench v2.0 software was run. Thereby, the cartridges were first primed with 150 μl 0.1% TFA in acetonitrile at 300 μl/min, and equilibrated with 150 μl 0.1% TFA in 80% acetonitrile at 10 μl/min. Then, pooled fractions were loaded at 5 µl/min and further washed three times with 150 μl 0.1% TFA in 80% acetonitrile at 50 μl/min. Enriched peptides were eluted with 60 μl 1% ammonium hydroxide at 5 μl/min.

For the next assay, the system named is TBKBP1. More on the design: method as in Klaeger et al. (2017). The note with it: lysate 4 cell line mix (Colo205, K-562, MV-4-11, and SK-N-BE(2)), Kinobeads y, ref Klaeger et al. (2017); cited from earlier work.
A further assay concerns MAP4K2. Also on record: method as in Klaeger et al. (2017). The note with it: MAP4K2, 4 cell line mix lysate, Kinobeads y, ref Klaeger et al. (2017); cited from earlier work.

For `COc1cc(N2CCC(N3CCN(C)CC3)CC2)ccc1Nc1ncc(Cl)c(Nc2ccccc2P(C)(C)=O)n1` [Brigatinib], the Kd at PRKCD (read-out: KDapp) is 24.5 µM; at PKN3 (read-out: KDapp) it was 38.5 µM. Moreover, the concentration giving a half-maximal response (EC50) in the assay with PRKCD was 25.8 µM; in the assay on PKN3, 38.5 µM. For the same compound, the figures for the pKDapp at PRKCD and on PKN3 were 4.61 and 4.41, respectively.
With `Nc1ccn([C@@H]2O[C@H](CO)[C@@H](O)C2(F)F)c(=O)n1` [GEM, Gemcitabine], in the assay on p-sites in AsPC-1 cells (1 µM GEM vs. vehicle), the “increase of CHEK1-pS468 phosphorylation upon GEM” value is > 18 fold and 18 fold; the “increase of LRRC42-pS385 upon GEM” value is 4.8 fold and ~ 5 fold; the “increase of NSUN5-pS432 upon GEM” value turned out to be 7 fold; the “increase of PNISR-pS706 upon GEM” value is reported as 4.6 fold. Further, in the assay with p-sites in AsPC-1 cells (1 µM GEM vs. vehicle), the “induction of HMGA1 pS9 by GEM” value is on record as greater than 4 fold, the “induction of HMGA1 pS44 by GEM” value is on record as greater than 4 fold, the “induction of PPM1G pS201 by GEM” value is listed as greater than 4 fold and the “induction of TSEN34 pS136 by GEM” value was greater than 4 fold. Besides, in the assay on p-sites in AsPC-1 cells (1,000 nM GEM vs. vehicle, n=4), the “GEM Regulation, PPM1G S201” value was “up”; the “GEM Regulation, RALY S176” value was “up”; the “GEM_log2FC, PPM1G S201” value was 2.66 log2; the “GEM_log2FC, RALY S176” value is recorded as 3.08 log2.
On to `C[C@]12O[C@H](C[C@]1(O)CO)n1c3ccccc3c3c4c(c5c6ccccc6n2c5c31)CNC4=O` [Lestaurtinib], for which the results for the 50% effective concentration (EC50) in the assay on TBKBP1 and with MAP4K2 were 1.01 µM and […], respectively.
